Results on two compounds are retold here after patent EP3023007A1, “[…]” (JIANGSU ROTAM CHEMISTRY CO., LTD., priority 2013, dated 2015).

One assay deals with sclerotia sclerotium. To be noted: after applying it once in a suitable period; cited from earlier work.
The next assay deals with cabbage leaf spot. Description: Toxicity test of leaf spot of cabbage (pot test on sprayed seedlings, EC50 and co-toxicity coefficient by Sun Yunpei's method). The conditions noted are these: for EC50 (PPM): cabbage seedlings, sprayed 24 h before inoculation, disease index after seven days; for TTI: toxicity index, cabbage leaf spot. Type of assay: in vivo. On the procedure:
(§1) The toxicity index of each of the formulations and the co-toxicity coefficient (CTC value) of the mixed formulation were calculated according to Sun Yunpei's method. […] Actual toxicity index (ATI) = (standard formulation EC50/testing formulation EC50)*100 [formula]
(§2) Theoretical toxicity index (TTI) = (toxicity index of formulation A * percentage of A in the mixed formulation) + (toxicity index of formulation B * percentage of B in the mixed formulation) Co−toxicity coefficient (CTC) = [actual toxicity index(ATI) of the mixed formulation/theoretical toxicity index (TTI)of the mixed formulation]*100 [formula]
The samples were selected from the cabbage seedlings in the same growing period. Three pots were selected for each treatment and each pot was sprayed with 5 mL with a potter spray tower at the pressure of 50 PSI and each chemical was set for 12 concentration gradients. Inoculation was carried out 24 hours after the treatment of the formulations. The conidiums from the leaves with cabbage leaf spot (collected from the field) was spread evenly on the cabbage seedlings, and the cabbage seedlings were then put in the green house for culturing.
Seven days later, the disease index for the whole plant was studied according to the pathological grading standard of cabbage leaf spot. The prevention and control efficacy was determined, and the generalized least square method was then applied to calculate the half maximal effective concentration EC50. The Sun Yunpei's method was applied to calculate the co-toxicity coefficient (CTC). Table 3: Toxicity Test Result of Applying the Present Invention to Prevent and Control Leaf Spot of Cabbage

A further assay has as its system wheat downy mildew. Description: Toxicity test of wheat downy mildew (pot test on sprayed seedlings, EC50 and co-toxicity coefficient by Sun Yunpei's method). The class given is in vivo. To be noted: for TTI: toxicity index, wheat downy mildew; for EC50 (PPM): wheat seedlings, sprayed 24 h before inoculation, disease index after seven days. On the procedure: as §1, §2
The samples were selected from wheat seedlings in the same growing period of three to four leaf stage. Three pots were selected for each treatment and each pot was sprayed with 5 mL with a potter spray tower at the pressure of 50 PSI and each chemical was set for 12 concentration gradients. Inoculation was carried out 24 hours after the treatment of the formulations. The conidiums from the leaves with wheat downy mildew (collected from a field) was spread evenly on the wheat seedlings, and then the wheat seedlings were put in the green house for culturing.
Seven days later, the disease index for the whole plant was studied according to the pathological grading standard of wheat downy mildew. The prevention and control efficacy was determined, and the generalized least square method was applied to calculate the half maximal effective concentration EC50. The Sun Yunpei's method was applied to calculate the co-toxicity coefficient (CTC). Table 1: Toxicity Test Result of Applying the Present Invention to Prevent and Control Wheat Downy Mildew

The next assay relates to potato gray mold. In words: Toxicity test of potato gray mold (pot test on sprayed seedlings, EC50 and co-toxicity coefficient by Sun Yunpei's method). Type of assay: in vivo. To be noted: for EC50 (PPM): potato seedlings, sprayed 24 h before inoculation, disease index after seven days; for TTI: toxicity index, potato gray mold. On the procedure:
as §1, §2
The samples were selected from potato seedlings in the same growing period of three to four leaf stage. Three pots were selected for each treatment and each pot was sprayed with 5 mL with a potter spray tower at the pressure of 50 PSI and each chemical was set for 12 concentration gradients. Inoculation was carried out 24 hours after the treatment of the formulations. The conidiums from the leaves with potato gray mold (collected from a field) was spread evenly on the potato seedlings, and then the potato seedlings were put in the green house for culturing.
Seven days later, the disease index for the whole plant was studied according to the pathological grading standard of potato gray mold. The prevention and control efficacy was determined, and the generalized least square method was applied to calculate the half maximal effective concentration EC50. The Sun Yunpei's method was applied to calculate the co-toxicity coefficient (CTC). Table 2: Toxicity Test Result of Applying the Present Invention to Prevent and Control Potato Gray Mold

A further assay has as its system potato cinerea. In words: Activity of preventing and controlling grey mould of potato (Colby synergy test, visual observation). Type of assay: in vivo. The conditions noted are these: Solanum tuberosum, potato seedlings in pots, read-out: Observed activity (%). The source says:
A synergistic effect exists when the fungicidal activity of the active compound composition is greater than the sum of the activities of the active compounds applied individually. The expected activity for a given combination of two active compounds can be calculated in accordance with Colby's formula (refer to S.R. Colby, "Calculating Synergistic and Antagonistic Responses of Herbicide Combinations", Weeds 1967, 15, 20-22) as follows: • If X denotes the activity when using active compound A at an application rate of mg/ha or in a concentration of mppm; • Y denotes the activity when using active compound B at an application rate of ng/ha or in a concentration of nppm; • E denotes the activity when using active compounds A and B at application rates of m and ng/ha or in concentration of m and n ppm;
Then: E = X + Y−(X⋅Y)/(100) [formula]
The leaves of the potato seedlings in pots were sprayed with the suspension concentrate in a range of concentrations of the active compounds.
The next day, the treated plants were inoculated with a spore suspension of potato cinerea. The pots were then allowed to stand for 24 hours in a room at 20-22 °C and with high humidity (90-95%). During this period, the spores germinated and the germ tubes penetrated into the leaf tissues. […] Later, the development of cinerea on the leaves was determined by visual observation.

In a further assay the test system is tomato downy mildew. In words: Toxicity test of downy mildew of tomato (pot test on sprayed seedlings, EC50 and co-toxicity coefficient by Sun Yunpei's method). The class given is in vivo. To be noted: for EC50 (PPM): tomato seedlings, sprayed 24 h before inoculation, disease index after seven days; for TTI: toxicity index, tomato downy mildew. On the procedure:
as §1, §2
The samples were selected from the tomato seedlings in the same growing period. Three pots were selected for each treatment and each pot was sprayed with 5 mL with a potter spray tower at the pressure of 50 PSI and each chemical was set 12 concentration gradients. Inoculation was carried out 24 hours after the treatment of the formulations. The conidiums from the leaves with tomato downy mildew (collected from the field) was spread evenly on the tomato seedlings, and the tomato seedlings were then put in the green house for culturing.
Seven days later, the disease index for the whole plant was studied according to the pathological grading standard of tomato downy mildew. The prevention and control efficacy was determined, and the generalized least square method was then applied to calculate the half maximal effective concentration EC50. The Sun Yunpei's method was applied to calculate the co-toxicity coefficient (CTC). Table 4: Toxicity Test Result of Applying the Present Invention to Prevent and Control Tomato Downy Mildew

Consider `O=C(Nc1ccccc1-c1ccc(Cl)cc1)c1cccnc1Cl` [Boscalid, 2-chloro-N-(4'-chlorobiphenyl-2-yl) nicotinamide], for which, in the assay with sclerotia sclerotium, the “control effect and disease index” value is given as “more than 80%”. For the same compound, the “EC50 (PPM)” value with cabbage leaf spot is 26.13 PPM; with wheat downy mildew, 16.23 PPM; in the assay on potato gray mold, 15.23 PPM; in the assay on tomato downy mildew, 22.24 PPM. The TTI with cabbage leaf spot, in the assay on wheat downy mildew, with potato gray mold and in the assay on tomato downy mildew was 100 throughout. The activity at 8 ppm in the assay with potato cinerea (Concentration 8 ppm) is 28%.
For the compound `N#Cc1c(Cl)c(Cl)c(Cl)c(C#N)c1Cl` [Chlorothalonil, 2,4,5,6-tetrachloro-1,3-benzenedicarbonitrile], the “EC50 (PPM)” value amounted to 38.03 PPM in the assay with cabbage leaf spot, 18.76 PPM with wheat downy mildew, 38.03 PPM in the assay on potato gray mold and 32.27 PPM with tomato downy mildew. Also, the TTI in the assay with cabbage leaf spot is given as 68.71; in the assay with wheat downy mildew, 86.5; in the assay with potato gray mold, 68.71; in the assay on tomato downy mildew, 68.91. Further, the activity at 40 ppm in the assay on potato cinerea (Concentration 40 ppm) is 0%.
